Data as given in patent publication US20260263468A1 (Fundación Instituto de Investigación Sanitaria Fundación …, priority 2023, published 2026).

Tests used:
C2C12 [1] = assay: Nucleotide concentration by HPLC during C2C12 differentiation; assay type: cell-based
Method: Supernatant and cell lysate are collected every day. Cells were lysated with a homemade buffer (1 mM phenylmethylsulfonyl fluoride, 1 mM protease inhibitor cocktail, 1 mM sodium orthovanadate, 1 mM sodium fluoride and 1 mM β-glicerophospate) and supernatant was used directly. A heat shock step was done at 98° C. for 2 min, and to avoid adenosine degradation 1 μM EHNA was added at the time of heating. All samples were centrifuged at 13000 g for 10 min at 4° C. and supernatants were collected and stored at −80° C. until use. Inosine, adenosine, AMP, ADP and ATP concentrations were determined with high performance liquid chromatography (HPLC) using a liquid chromatograph with a reversed phase column (Agilent 1100 Series Liquid Chromatography) and an UV detector set at 254 nm. Buffer composed of 0.1 mol/L KH2PO4 (pH 7.5) and 18% acetonitrile was run at 1.5 ml/min for 20 min. Compounds were identified and quantified by their retention times and peak areas of known standards, calibrated by spectrophotometry. […] The results have been corrected and expressed as mean±SEM. All results were calculated as a percentage of controls without differentiation state.

C2C12 [2] = assay: Western blot of myogenesis markers during differentiation; assay type: cell-based; conditions: 1 μM
Method: (§1) Cells were lysed with RIPA buffer and protein concentration was determined by BCA. […] Variations in intensity were expressed as % of basal (day 0) and expressed as mean±SEM. All results were calculated as a percentage of non-differentiated controls to minimize the intrinsic variation among different experiments.

C2C12 [3] = assay: Western blot of adenosine receptors, P2X7 and Panx-1 during differentiation; assay type: cell-based; conditions: 1 μM
Method: as §1
The expression of adenosine receptors, P2X7 receptor and Panx-1 channel was analyzed during myoblast differentiation.

[4] = tested on: K/B×N serum transfer-induced arthritis; assay: K/B×N serum transfer-induced arthritis, acute model: joint thickness, clinical score, body weight; assay type: in vivo, C57BL/6J mice
Method: In their quest for a model of inflammatory arthritis which could display associated sarcopenia the inventors employed serum transfer from K/B×N progeny in 12-wk-old C57BL/6J mice. Arthritic K/B×N mice were generated by crossing KRN mice with NOD/Lt mice. Serum was collected and pulled. Age-matched, male recipient, 12-wk-old C57BL/6J mice were purchased from Charles River Laboratories (Barcelona, España). C57BL/6J mice were injected with pooled serum (100 μl, I.P.) from K/B×N mice on day 0 and 2.
(§2) Development of arthritis was assessed daily, and the severity of arthritis was assessed in each paw on a 4-point scale defined as follows: 0=normal appearance, 1=localized edema/erythema over one surface of the paw, 2=edema/erythema involving more than one surface of the paw, and 3-4=marked edema/erythema involving the whole paw. Scores of all 4 paws were added for a composite score. All motor activity tests were performed prior to serum inoculation and at the highest point of inflammation. Mice were euthanized on day 14. Gastronemius and quadriceps were collected for protein and RNA extraction. Tibialis and soleus were included for freeze histology following the indications of H. Meng (1). Bones were prepared for micro-computed tomography (microCT) and histology. White adipose tissue (WAT) and brown adipose tissue (BAT) were collected for histology and protein extraction. Blood was drawn and serum was isolated for measurement of inflammatory cytokines and C-reactive protein (CPR).
(§3) Animals were sacrificed 30 days after serum transfer.
as §2, with “Mice were weighted weekly. Development” for “Development”, “16 for acute inflammation model or 30 days for Inflammation resolved model. A representative photo of body structure and muscle of pawn were taken on this day.” for “14.”, “was” for “and quadriceps were”, “(see references in ref. 44).” for “(1).”, “histology.” for “histology. White adipose tissue (WAT) and brown adipose tissue (BAT) were collected for histology and protein extraction.”

[5] = tested on: K/B×N serum transfer-induced arthritis; assay: Resolved inflammation model (30 days): tissues weight, inflammation, body weight; assay type: in vivo, C57BL/6J mice; conditions: for BAT, Absolute weight / Bodyweight, Absolute weight / EDL, Absolute weight / Gastronemius, Absolute weight / Tibialis, Absolute weight / WAT, Absolute weight: resolved model
Method: as §3
as §2, with “Mice were weighted weekly. Development” for “Development”, “16 for acute inflammation model or 30 days for Inflammation resolved model. A representative photo of body structure and muscle of pawn were taken on this day.” for “14.”, “was” for “and quadriceps were”, “(see references in ref. 44).” for “(1).”, “histology.” for “histology. White adipose tissue (WAT) and brown adipose tissue (BAT) were collected for histology and protein extraction.”
Body weight and muscle loss continue happening until day 30 when inflammation is resolved (FIG. 15), and dipy treatment continues reverting inflammation effects (FIG. 15A).

[6] = tested on: K/B×N serum transfer-induced arthritis; assay: Cytokine and chemokine array in gastronemius muscle; assay type: in vivo, C57BL/6J mice; conditions: acute model, RA + Dipy
Method: The cytokines concentration was measured by fluorescence using GenePix 4000B following manufacture protocol for serum and frozen samples. Serum samples were used at 2-fold sample dilution. Frozen gastronemius were crushed using a mortar and a pestle cooled with liquid nitrogen. Next, gastronemius were homogenized in a sonicator and the protein isolated in the supernatant quantified with BCA assay. We used 100 μL (1 mg/ml) of total gastronemius protein for cytokine and chemokine array assay.

[7] = RA mice, dipy started 7 days after serum transfer

## OCCN(CCO)c1nc(N2CCCCC2)c2nc(N(CCO)CCO)nc(N3CCCCC3)c2n1 [dipyridamole, 2,6-bis(Diethanolamino)-4,8-dipiperidinopyrimido[5,4-d]pyrimidine]
C2C12 [1]; 1 μM each, day 4, control 14.7±0.5
  Extracellular ATP: did not modify
C2C12 [1]; 1 μM, day 4, control 10.87±0.73
  Intracellular adenosine: 13.76 ± 1.13 nM
C2C12 [1]; 1 μM, day 4, control 11.07±0.54
  Intracellular inosine: 14.17 ± 1.75 nM
C2C12 [1]; 1 μM, day 4, control 12.10±0.73
  Intracellular AMP: 18.53 ± 1.13 nM
C2C12 [1]; 1 μM, day 4 of differentiation, control 11.6±0.81
  Extracellular adenosine: 17.33 ± 0.47 nM
C2C12 [2]; day 1, control 315±58%
  PAX7 protein expression (% of basal): revert the effect to control levels
C2C12 [2]; day 2, control 182±8%
  MyoD protein expression (% of basal): 162±29%
C2C12 [2]; first 2 days of differentiation
  Myf5 protein expression (% of basal): did not modulate
C2C12 [3]; compared to control
  A3 receptor protein expression: did not change
C2C12 [3]; day 4
  P2X7 protein expression (% of basal): 202±46%
[4]; arthritic mice, 2 weeks of treatment, arthritic 14.2±4.1%
  Weight loss: 6.2±3.4%
[4]; arthritic mice, daily dipyridamole, 2 wk, arthritic 1.72±0.09
  Paw (joint) thickness: 0.5±0.01 mm
[4]; arthritic mice, daily dipyridamole, 2 wk, arthritic 14±1
  Clinical score (inflammation): 5±3
[4]; healthy mice, dipy alone, two weeks
  Hind paw musculature (macroscopic): no significant changes
[4]; healthy mice, dipyridamole 25 mg/kg/day alone, 2 weeks
  Percentage of weight: did not change
[5]; [7]
  Body weight: body weight gain starting one week after first dipy dose
  Joint inflammation: complete reversion of inflammation
[5]; Dipy alone
  BAT, Absolute weight: 0.15 ± 0.01 g
  Bodyweight, Absolute weight: 27 ± 0.5 g
  EDL, Absolute weight: 0.03 ± 0.01 g
  Gastronemius, Absolute weight: 0.39 ± 0.03 g
  Tibialis, Absolute weight: 0.16 ± 0.02 g
  WAT, Absolute weight: 0.14 ± 0.06 g
[5]; RA + Dipy D 0
  BAT, Absolute weight: 0.17 ± 0.01 g
  EDL, Absolute weight: 0.03 ± 0.01 g
  Gastronemius, Absolute weight: 0.37 ± 0.02 g
  Tibialis, Absolute weight: 0.11 ± 0.01 g
  WAT, Absolute weight: 0.15 ± 0.08 g
[5]; RA + Dipy D 0 (preventive)
  Bodyweight, Absolute weight: 26.4 ± 1.31 g
[5]; RA + Dipy D 7
  BAT, Absolute weight: 0.15 ± 0.01 g
  Gastronemius, Absolute weight: 0.33 ± 0.02 g
  Tibialis, Absolute weight: 0.05 ± 0.01 g
  WAT, Absolute weight: 0.18 ± 0.12 g
[5]; RA + Dipy D 7 (therapeutic)
  Bodyweight, Absolute weight: 27.26 ± 1.20 g
[6]
  Muscle IL-1α: 3.5 ± 0.2 pg/mL
  Muscle IL-1β: 13.9 ± 1.9 $$ pg/ml
  Muscle IL-2: 8 ± 2.8 pg/mL
  Muscle IL-3: 1 ± 0.2 pg/mL
  Muscle IL-4: 23 ± 1.9 pg/mL
  Muscle IL-5: 5.5 ± 0.8 pg/mL
  Muscle IL-6: 6.9 ± 0.6 **/$ pg/ml
  Muscle IL-9: 13.1 ± 2.5 pg/mL
  Muscle IL-10: 32.5 ± 2.3 **/ $ pg/ml
  Muscle IL-13: 11.3 ± 0.9 pg/mL
  Muscle IL-17: 7 ± 1.3 pg/mL
  Muscle INFγ: 48.7 ± 4.8 */$ pg/ml
  Muscle KC (CXCL1): 1.2 ± 0.7 pg/mL
  Muscle M-CSF: 11.8 ± 1.6 pg/mL
  Muscle RANTES: 4.7 ± 0.5 pg/mL
  Muscle TNF-α: 24.6 ± 1.2 pg/mL
  Muscle VEGF: 122 ± 12.9 pg/mL
[6]; listed as Dipy
  Muscle MCP-1: 43.8 ± 9.9 */$ pg/ml
[6]; listed as dipy
  Muscle MCP-1: 43.8 ± 9.9 pg/mL
